Patent publication US20260199426A1, “CYCLIC LIPOPEPTIDE ANTIBIOTIC COMPOUNDS FOR USE IN THE TREATMENT OF PROTEIN AGGREGATION DISEASE” (DEUTSCHES ZENTRUM FÜR NEURODEGENERATIVE ERKRANKUNGEN E. V., priority 2022, published 2026)
*1 amine or outer side, *2 acyl side, *3 side chain or, on linkers, in order; H or OH if unused. Where a SMILES comes first, the peptide text is derived from it. Bridges are numbered along the chain shown (N, C = ends). [ ]: non-standard residue; d: D form. The star is where a group is joined. ξ: configuration not given here. X2 = O=C(C(N[*:1])c1ccc(OC2OC(CO)C(O)C(O)C2OC2OC(CO)C(O)C(O)C2O)cc1)[*:2]; Octa(2Z,4E)dienoyl(7-Me) = CC(C)C/C=C/C=C\C(=O)*; ξPhg(3-Cl-4-OH) = NC(C(=O)O)c1ccc(O)c(Cl)c1; X1 = NC(=O)C(O[*:3])C(N[*:1])C(=O)[*:2]; Hpg = N[CH](C(=O)O)c1ccc(O)cc1; Orn = NCCC[CH](N)C(=O)O

Tested on: PS19 mouse model of tauopathy (human MAPT P301S)
Experiment: Behavior, neuropathology and survival of PS19 mice
Assay type: in vivo
Settings: 50, 100, and 150 mg/kg in feed, approximately 8 months

CC(C)C/C=C/C=C\C(=O)NC(CC(N)=O)C(=O)NC1C(=O)NC(c2ccc(O)cc2)C(=O)NC(CCCN)C(=O)NC(C(C)O)C(=O)NC(c2ccc(O)cc2)C(=O)NC(c2ccc(O)cc2)C(=O)NC(C(C)O)C(=O)NC(Cc2ccccc2)C(=O)NC(CCCN)C(=O)NC(c2ccc(OC3OC(CO)C(O)C(O)C3OC3OC(CO)C(O)C(O)C3O)cc2)C(=O)NC(C(C)O)C(=O)NC(c2ccc(O)cc2)C(=O)NCC(=O)NC(CC(C)C)C(=O)NC(C)C(=O)NC(c2ccc(O)c(Cl)c2)C(=O)OC1C(N)=O (centres unmarked) [Ramoplanin A2] ({Octa(2Z,4E)dienoyl(7-Me)}-N[X1][Hpg][Orn]T[Hpg][Hpg]TF[Orn][X2]T[Hpg]GLA[ξPhg(3-Cl-4-OH)]; ester 2-C; configuration not given here)
cognition, neuropathology, and survival of PS19 mice: positive effect | tau aggregation in PS19 mice: inhibits tau aggregation
